Results taken from patent US20210299109A1, “AGENTS FOR TREATING CANCER AND METHODS FOR IDENTIFYING SAID AGENTS” (MINERVA BIOTECHNOLOGIES CORPORATION, priority 2017, published 2021).

What was measured:
naïve stem cells = test: RT-PCR of differentiation markers and super-enhancer target genes in naïve stem cells; assay type: cell-based, human
Source text: The genes whose expression increased as a result of treatment with the compounds of the invention, in a concentration dependent manner, are fibronectin and vimentin, which both increase as stem cells initiate differentiation and NF1, which is one of the first genes to increase when stem cells begin to differentiate down the neural lineage. […] Thus, compounds of the invention that induce markers of differentiation are useful for the treatment of cancers, because cancer cells, by definition, have de-differentiated, which allows them to continually self-replicate. […] Expression of metastatic marker E-cadherin was reduced and expression of differentiation markers fibronectin, vimentin and NF1 were increased. Novel compounds of the invention are highly specific. […] Although we discovered that NME1 dimers, NME7AB and NME7-X1 are all activating ligands of the MUC1* growth factor receptor and they bind to its extracellular domain, we have developed ample evidence that both NME7AB and NME7-X1 have other binding partners and can exert oncogenic effects, independent of MUC1*.
We first used RT-PCR to measure expression of these super-enhancer target genes and other genes of interest in naïve stem cells in the presence or absence of a few compounds of the invention. […] We also measured expression of microRNA-145, in response to treatment with compounds of the invention. […]

[1] = system: human naïve state stem cells; test: stem cell drug screen on naïve state stem cells; assay type: cell-based; conditions: for effect on naïve stem cells: pluripotency, growth, differentiation (first panel, FIG. 2, 7-10): 6 uM, 3 days, with or without NME7AB
Description: (§1) The stem cell screening assay, was performed in both the presence and absence of the stem cell growth factors: NME7AB for growing naïve stem cells or FGF for growing primed stem cells. If the cognate growth factor was present, then the biological or small molecule would have to compete away the growth factor to get an effect. Therefore, we expected to see more of an effect when the growth factor, FGF for primed stem cells or NME7AB or NME1 dimers for naïve stem cells, was absent. The effect of the compounds on stem cells was visually determined and compounds were ranked 0-4, with 4 being the greatest effect and 0 being no observable effect. The major effect that was observed was a change from pluripotent stem cell morphology, which is a cobblestone pattern of small round cells with a large nucleus to cytoplasm ratio, to that of differentiating stem cells, which are elongated, large and flattened cells with a smaller nucleus to cytoplasm ratio. […] […] In this particular case, the naïve state stem cells were maintained in a naïve state by culturing in a media containing NME7AB or NME1 dimers. However, other methods such as 2i and 5i (Silva et al., 2008, Nichols and Smith, 2009, Theunissen et al., 2014)] can be used to maintain stem cells in a more naïve state. In this case primed state stem cells were cultured in bFGF over a layer of MEFs, although it is known that any bFGF containing media will maintain stem cells in the primed state.
Percent inhibition of cancer cell migration was performed in a wound healing assay. The percent area that the invading cancer cells occupied, in the presence of a drug candidate compared to the controls, was quantified by Image J cell software which enables cell counting from photographs. IC50's were calculated by performing migration experiments at several compound concentrations and then applying Hill's equation. Inhibition of cancer cell proliferation was quantified by automated cell counting in the presence or absence of a drug candidate. Here, the inhibition of cancer cell proliferation was scored 1 if proliferation was inhibited by 25%, 2 if inhibited by 50%, 3 for 75% and 4 for the highest degree of inhibition of proliferation, and 0 for the lowest. The effect of the drug candidates on stem cell pluripotency or proliferation was scored by eye, based on cell morphology and cell density, with 0 being no change in morphology or cell number and 4 being the most profound effect, with the stem cells taking on the morphology of a differentiating cell, along with much fewer cells indicative of inhibition of proliferation. As an example, FIGS. 30A-30F show photographs of naïve stem cell, primed stem cell and fibroblast controls. FIGS. 31A-31F show the effect of compounds of the invention on naïve state stem cells, where the number of ‘+’ signs indicates the score from 0-4 of ability of compound to inhibit pluripotency, proliferation of naïve stem cells or ability to induce their differentiation. […] FIGS. 36-44 and 65-87 show photographs and IC50 graphs of the compounds of the invention, inhibiting cancer cell migration and invasion. Cancer cell migration is a hallmark of metastatic cancer.
Stem cells whether embryonic or induced pluripotent stem (iPS) cells were cultured in a minimal, serum-free media that contained human recombinant NME7AB at a concentration of 2-32 nM wherein 4-8 nM is preferred and 4 nM is more preferred. […]

human fibroblasts = test: effect on fibroblast proliferation (surrogate for normal cells); assay type: cell-based; conditions: 500 nM final concentration
Source text: However, fibroblasts are more differentiated than stem cells but are able to self-replicate for defined periods of time. We tested selected compounds of the invention to determine if these compounds were just cytotoxic or if they selectively affected stem cells and, importantly, cancer cells, but not normal, healthy cells. Here, we used fibroblasts as a surrogate for normal cells. […] […] Each compound was scored for its effect on fibroblast proliferation where “+” indicates 25% inhibition of fibroblast growth, “++” 50% inhibition and “+++” 75% inhibition of growth.

[2] = system: human primed state stem cells; test: stem cell drug screen on primed state stem cells; assay type: cell-based
Description: as §1
Percent inhibition of cancer cell migration was performed in a wound healing assay. The percent area that the invading cancer cells occupied, in the presence of a drug candidate compared to the controls, was quantified by Image J cell software which enables cell counting from photographs. IC50's were calculated by performing migration experiments at several compound concentrations and then applying Hill's equation. Inhibition of cancer cell proliferation was quantified by automated cell counting in the presence or absence of a drug candidate. Here, the inhibition of cancer cell proliferation was scored 1 if proliferation was inhibited by 25%, 2 if inhibited by 50%, 3 for 75% and 4 for the highest degree of inhibition of proliferation, and 0 for the lowest. The effect of the drug candidates on stem cell pluripotency or proliferation was scored by eye, based on cell morphology and cell density, with 0 being no change in morphology or cell number and 4 being the most profound effect, with the stem cells taking on the morphology of a differentiating cell, along with much fewer cells indicative of inhibition of proliferation. As an example, FIGS. 30A-30F show photographs of naïve stem cell, primed stem cell and fibroblast controls. […]

[3] = system: MUC1* positive cancer cells; conditions: in vitro; cited from earlier work
cancer cells = conditions: cited from earlier work

Cc1[nH]c(/C=C2\C(=O)Nc3ccc(S(=O)(=O)N(C)c4cccc(Cl)c4)cc32)c(C)c1C(=O)N1CCN(C)CC1 [SU11274]
up-regulation of markers of differentiation (fibronectin, vimentin, NF1) in naïve stem cells (naïve stem cells): did not cause up-regulation of markers of differentiation

Cc1sc2c(c1C)C(c1ccc(Cl)cc1)=N[C@@H](CC(=O)OC(C)(C)C)c1nnc(C)n1-2 [JQ1(+)]
up-regulation of markers of differentiation (fibronectin, vimentin, NF1) in naïve stem cells (naïve stem cells): did not cause up-regulation of markers of differentiation | effect on naïve stem cell growth [1]: inhibitory effect | induction of differentiation and growth inhibition of naïve state stem cells ([1]; 500 nM or 1 uM, cells cultured in NME7AB or NME1 dimers): dramatically induced differentiation | effect on fibroblasts (human fibroblasts): same effect on fibroblasts as it does on primed state stem cells | effect on primed stem cell growth [2]: not primed stem cell growth | effect on the size of primed stem cell colonies ([2]; treated for 3 days, 500 nM or 1 uM): modest effect | induction of differentiation of primed state stem cells ([2]; treated for 3 days, JQ1 at 500 nM or 1 uM, bFGF absent): None of these agents appeared to induce differentiation

COC(=O)c1ccc(C2c3[nH]c4ccccc4c3CCN2C(=O)c2cccc(Cl)c2)cc1 (centres unmarked) [MN0642]
effect on naïve stem cells: pluripotency, growth, differentiation (first panel, FIG. 2, 7-10) [1]: induced differentiation | inhibition of growth of cancer cells [3]: inhibit the growth of cancer cells in vitro

CCCCNC(=O)N1CCc2c([nH]c3ccccc23)C1C(C)c1ccccc1 (centres unmarked) [MN1130]
effect on naïve stem cells: pluripotency, growth, differentiation (first panel, FIG. 2, 7-10) [1]: induced differentiation | effect on primed stem cells (first panel, FIG. 2-6) ([2]; 6 uM, 3 days, with or without FGF): modest effect

FLR peptide: synthetic peptide corresponding to the extracellular domain of MUC1*, FLR also known as PSMGFR (SEQ ID NO:3) (GTINVHDVETQFNQYKTEAASRYNLTISDVSVSDVPFPFSAQSGA; the extracellular domain of Native Primary Sequence of the MUC1 Growth Factor Receptor (nat-PSMGFR - an example of “PSMGFR”))
inhibition of the transition of regular cancer cells to metastatic cancer cells (cancer cells): inhibit the transition of regular cancer cells to metastatic cancer cells | effect on naïve stem cells: pluripotency, growth, differentiation (first panel, FIG. 2, 7-10) [1]: induced differentiation
